Experimental data reported in US8377923B2, “Triazole derivative or salt thereof” (Astellas Pharma Inc., priority 2008, dated 2013).
Counter-ions that a name gives are not always drawn.

Legend:
[1] = target: T1, human recombinant 11β-HSD2 (Homo sapiens, UniProt P80365); test: Measuring test for human 11β-HSD2 inhibitory activity (HTRF cortisol detection); type: biochemical; conditions: human recombinant 11β-HSD2, 200 nM cortisol, 200 μM NAD, pH 8.0, 37° C. 2 h
T1 sequence (P80365 1-405): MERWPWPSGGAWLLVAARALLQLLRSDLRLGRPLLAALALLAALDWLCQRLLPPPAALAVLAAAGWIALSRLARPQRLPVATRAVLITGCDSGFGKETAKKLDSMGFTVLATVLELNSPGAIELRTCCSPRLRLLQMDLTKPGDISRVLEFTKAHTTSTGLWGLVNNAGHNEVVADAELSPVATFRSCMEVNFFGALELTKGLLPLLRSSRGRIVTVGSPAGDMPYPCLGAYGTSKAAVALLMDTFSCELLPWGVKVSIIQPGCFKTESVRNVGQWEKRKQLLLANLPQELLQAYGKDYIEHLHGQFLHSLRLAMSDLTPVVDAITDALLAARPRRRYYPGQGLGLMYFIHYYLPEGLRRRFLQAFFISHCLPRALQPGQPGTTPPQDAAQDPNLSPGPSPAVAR
Procedure: (§1) Test Method 1: Measuring Test for Human 11β-HSD1 and 11β-HSD2 Inhibitory Activities
Measurement of the 11β-HSD2 inhibitory activity was carried out in the same manner as in the 11β-HSD1 inhibitory activity measurement, except for the enzyme reaction conditions. The enzyme reaction was carried out by adding the compound to be tested with various concentrations to a reaction liquid consisting of 40 mM Tris-HCl buffer (pH 8.0), 200 nM cortisol, 200 μM nicotinamide adenine dinucleotide (NAD) and human recombinant 11β-HSD2, and then incubating the same at 37° C. for 2 hours (10 μl/well).
(§2) The measured result was calculated by averaging the values of 3 wells of the same condition. The ratio when DMSO was added instead of the compound to be tested was regarded as 0% and the ratio when 11β-HSD1 or 11β-HSD2 was not added was regarded as 100%, thereby calculating 50% inhibition concentration of the compound to be tested as IC50 of the compound inhibitory action.

[2] = target: T2, human recombinant 11β-HSD1 (Homo sapiens, UniProt P28845); test: Measuring test for human 11β-HSD1 inhibitory activity (HTRF cortisol detection); type: biochemical; conditions: human recombinant 11β-HSD1, 200 nM cortisone, 40 μM NADPH, pH 6.6, room temperature 1 h
T2 construct: made in house
Procedure: as §1
The procedure for measuring 11β-HSD1-inhibitory action was as follows. In this connection, the enzyme reaction and measurement were carried out using a 384-well plate. The enzyme was prepared in accordance with a document (Walker E. A. et al., Journal of Biological Chemistry, 2001, vol. 276, p. 21343-21350). The reaction was carried out by adding the compound to be tested with various concentrations to a reaction liquid consisting of 10 mM phosphate buffer (pH 6.6), 200 nM cortisone, 40 μM reduced nicotinamide adenine dinucleotide phosphate (NADPH) and human recombinant 11β-HSD1, and then incubating the same at room temperature for one hour (10 μl/well). The compound to be tested was prepared by dissolving in dimethyl sulfoxide (DMSO) to a DMSO concentration of 1% in the reaction liquid. After the enzyme reaction was completed, the enzyme inhibitory action was measured by detecting cortisol using a homogeneous time-resolved fluorescence method (HTRF). Each of the XL-665-labeled cortisol containing 400 μM carbenoxolone and cryptate-labeled cortisol antibody (CIS bio international Co., Ltd.) was added in 5 μl/well portions and incubated at room temperature for 2 hours, and then the fluorescence intensity was measured using a fluorophotometer (trade name: Discovery, Perkin Elmer Inc.), and the enzyme inhibitory action was calculated from the fluorescence intensity ratio at two wavelengths (665 nm/620 nm).
as §2

male ddY mice = test: Scopolamine-induced impairment of spontaneous alternation behavior test (Y-maze); type: in vivo, mouse; conditions: oral, scopolamine 0.5 mg/kg i.p., Y-maze 8 minutes
Procedure: Test Method 5: Scopolamine-Induced Impairment of Spontaneous Alternation Behavior Test
The compound to be tested was orally administered to male ddY mice of 5 to 7 weeks of age and scopolamine was intraperitoneally administered at 0.5 mg/kg after 10 minutes. After more 20 minutes, the animals were put in a Y-maze having arms of equivalent lengths into three directions and were allowed to freely search for 8 minutes. In this time, spontaneous alternation behavior to the arm (consecutive approach three times to different arms) was counted and a spontaneous alternation rate (spontaneous alternation behavior÷(approach number−2)×100) was calculated to evaluate pharmaceutical efficacy.

ob/ob mice = test: Ob/ob mouse blood-glucose lowering test; type: in vivo; conditions: bid, oral, 14 days, male ob/ob mice, 12 hours after final administration
Procedure: Test Method 2: Ob/Ob Mouse Blood-Glucose Lowering Test
A compound liquid was prepared using 6% 2-hydroxypropyl-β-cyclodextrin as a solvent. Using 7 weeks-old male ob/ob mice (blood-glucose level of 300 mg/dL or more), blood-glucose levels were measured under non-fasting conditions and then the mice were divided into groups so that the blood-glucose levels became uniform among the groups. The compound to be tested was orally administered twice per day repeatedly for 14 days (3 or 10 mg/kg, bid) and a basal blood-glucose level was measured 12 hours after final administration (n=6 to 10). Similarly, the compound to be tested was orally administered twice per day repeatedly for […] (3 or 10 mg/kg, bid) and a blood glucose at fasting was measured under fasting conditions 12 hours after final administration. The blood-glucose level was measured by carrying out colorimetric determination of the amount of glucose (mg/dl) in heparin blood plasma obtained by collecting blood in a heparin-coated glass capillary and subsequently centrifuging the same.

[3] = tested on: CYP3A (human CYP3A gene promoter, via PXR); test: Human CYP3A enzyme inducibility test (PXR/CYP3A promoter luciferase reporter in HepG2); type: cell-based; conditions: HepG2 cells, 16 hours after addition of the drug
Procedure: Test Method 6: Human CYP3A Enzyme Inducibility Test
3E+6 (n) Human hepatoma-derived cell lines, HepG2, were seeded on a 10 cm collagen-coated dish. Human PXR expression vectors, luciferase reporter vector in which a human CYP3A gene promoter region is inserted, and renilla expression vector as a control were transiently introduced 6 hours after cell seeding. The entire cells were further seeded on 384-well plates 16 hours after introduction, and a drug dissolved in DMSO was added thereto 6 hours after seeding. Luciferase activity of the reporter gene and control gene were measured 16 hours after addition of the drug, a value corrected by a control was regarded as an active value, and the value obtained by dividing by an activity value in which no drug was added was calculated as a fold induction.

T2 sequence (P28845 whole entry): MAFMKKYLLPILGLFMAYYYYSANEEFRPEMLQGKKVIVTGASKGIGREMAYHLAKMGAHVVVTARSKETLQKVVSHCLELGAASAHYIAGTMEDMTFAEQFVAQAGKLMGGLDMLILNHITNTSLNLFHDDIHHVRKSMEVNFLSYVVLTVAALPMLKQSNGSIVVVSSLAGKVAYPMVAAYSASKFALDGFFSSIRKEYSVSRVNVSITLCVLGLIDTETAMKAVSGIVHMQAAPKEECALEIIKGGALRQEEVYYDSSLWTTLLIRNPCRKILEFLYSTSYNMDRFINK

SMILES | IC50 [1] | IC50 [2] | fold induction at 16 h, 3 µM [3] | Minimal effective dose for spontaneous alternation rate (male ddY mice) | Basal blood-glucose lowering activity (%) (ob/ob mice; 10 mg/kg) | Basal blood-glucose lowering activity (%) (ob/ob mice; 3 mg/kg)
C[C@H](Oc1ccc(C(N)=O)cc1Br)c1nnc(-c2ccccc2C(F)(F)F)n1C [Example 127] | > 3 µM | 0.0087 µM |  |  |  | 
CC(C)(Oc1ccc(F)cc1F)c1nnc(-c2ccc(C(N)=O)cc2F)n1C1CC1 [Example 355] | > 10 µM | 0.027 µM |  |  |  | 
Cn1c(-c2ccccc2C(F)(F)F)nnc1C(C)(C)Oc1ccc(C(F)(F)F)cc1Cl [Example 204] | > 10 µM | 0.12 µM |  |  | 29% (10 mg/kg) | 
Cn1c(-c2ccc(C(N)=O)cc2F)nnc1C(C)(C)Oc1c(F)cc(Cl)cc1F [Example 186] | > 3 µM | 0.0033 µM |  | 0.03 mg/kg |  | 23% (3 mg/kg)
Cn1c(-c2ccc(F)cc2Cl)nnc1C(C)(C)Oc1c(F)cc(F)cc1F [Example 65, 3-(2-chloro-4-fluorophenyl)-4-methyl-5-[1-methyl-1-(2,4,6-trifluorophenoxy)ethyl]-4H-1,2,4-triazole monohydrochloride] | > 3 µM | 0.0053 µM |  | 0.01 mg/kg |  | 
Cn1c(-c2ccc(C(N)=O)cc2Cl)nnc1C(C)(C)Oc1c(F)cc(Cl)cc1F [Example 185] | > 3 µM | 0.0029 µM |  |  |  | 
CCn1c(N2CCc3[nH]ncc3C2)nnc1C(C)(C)Oc1c(F)cc(F)cc1F [Example 87, 5-{4-ethyl-5-[1-methyl-1-(2,4,6-trifluorophenoxy)ethyl]-4H-1,2,4-triazol-3-yl}-4,5,6,7-tetrahydro-1H-pyrazolo[4,3-c]pyridine dihydrochloride] | > 10 µM | 0.013 µM |  |  |  | 
CCn1c(-c2ccc3cn[nH]c3c2)nnc1C(C)(C)Oc1c(F)cc(Cl)cc1F [Example 83, 6-{5-[1-(4-chloro-2,6-difluorophenoxy)-1-methylethyl]-4-ethyl-4H-1,2,4-triazol-3-yl}-1H-indazole] | > 10 µM | 0.023 µM |  |  |  | 
Cn1c(-c2ccccc2C(F)(F)F)nnc1C(C)(C)Oc1ccc(Cl)cc1-c1nnco1 [Example 69, 2-[5-chloro-2-(1-methyl-1-{4-methyl-5-[2-(trifluoromethyl)phenyl]-4H-1,2,4-triazol-3-yl}ethoxy)phenyl]-1,3,4-oxadiazole] | > 3 µM | 0.0055 µM |  |  | 32% (10 mg/kg) | 
Cn1c(-c2ccccc2C(F)(F)F)nnc1C(C)(C)Oc1ccc(Cl)cc1 [Example 64, 3-[1-(4-chlorophenoxy)-1-methylethyl]-4-methyl-5-[2-(trifluoromethyl)phenyl]-4H-1,2,4-triazole monohydrochloride] | > 3 µM | 0.003 µM |  | 0.001 mg/kg |  | 
Cn1c(-c2ccc(C(N)=O)cc2Cl)nnc1C(C)(C)Oc1c(F)cc(F)cc1F [Example 175] | > 3 µM | 0.003 µM | 1.24 |  |  | 20% (3 mg/kg)
Cn1c(-c2ccccc2C(F)(F)F)nnc1C(C)(C)Oc1ccc(Br)cn1 [Example 148] | > 3 µM | 0.0046 µM |  | 0.03 mg/kg |  | 
Cn1c(-c2ccc(F)cc2Br)nnc1C(C)(C)Oc1ccc(Cl)cc1 [Example 215] | > 10 µM | 0.012 µM |  | 0.01 mg/kg |  | 

The next lines start with results.

IC50 [1] | IC50 [2] | fold induction at 16 h, 3 µM [3] | SMILES | Minimal effective dose for spontaneous alternation rate (male ddY mice) | Basal blood-glucose lowering activity (%) (ob/ob mice; 10 mg/kg) | Basal blood-glucose lowering activity (%) (ob/ob mice; 3 mg/kg)
> 30 µM | 0.05 µM |  | Cn1c(-c2cc(Cl)ccc2Cl)nnc1C(C)(C)Oc1c(F)cc(F)cc1F [Example 374] |  |  | 
> 10 µM | 0.021 µM |  | CCn1c(-c2ccc(C(N)=O)cc2)nnc1C(C)(C)Oc1c(F)cc(Cl)cc1F [Example 509] | 0.01 mg/kg |  | 
> 3 µM | 0.008 µM |  | CCn1c(-c2ccc3c(c2)CNC3=O)nnc1C(C)(C)Oc1c(F)cc(F)cc1F [Example 518] |  |  | 
> 3 µM | 0.01 µM |  | CC(C)(Oc1c(F)cc(Cl)cc1F)c1nnc(-c2cc3c(cc2F)C(=O)NC3)n1C1CC1 [Example 580] |  |  | 
> 10 µM | 0.073 µM |  | Cn1cc(-c2nnc(C(C)(C)Oc3c(F)cc(F)cc3F)n2C2CC2)c(Cl)n1 [Example 545] |  |  | 
> 10 µM | 0.029 µM |  | CC(C)(Oc1cc(F)c(F)cc1F)c1nnc(-c2ccc(C(N)=O)cc2F)n1C1CC1 [Example 525] |  |  | 
> 100 µM | 0.1 µM |  | Cn1c(-c2ccc(F)c3ccccc23)nnc1C(C)(C)Oc1c(F)cc(F)cc1F [Example 373] |  |  | 
> 10 µM | 0.05 µM |  | CC(C)n1c(-c2ccc(C(N)=O)cc2)nnc1C(C)(C)Oc1c(F)cc(F)cc1F [Example 531] |  |  | 
> 10 µM | 0.02 µM |  | CC(C)n1c(-c2ccc(C(N)=O)cc2)nnc1C(C)(C)Oc1c(F)cccc1F [Example 616] |  |  | 
> 10 µM | 0.015 µM |  | Cn1c(-c2ccncc2C(F)(F)F)nnc1C(C)(C)Oc1c(F)cc(Cl)cc1F [Example 544] |  |  | 
> 10 µM | 0.054 µM |  | CC(C)n1c(-c2ccc(C(N)=O)cc2)nnc1C(C)(C)Oc1c(F)cc(Cl)cc1F [Example 535] | 0.01 mg/kg |  | 
> 3 µM | 0.013 µM |  | Cn1c(-c2sc(N)nc2C(F)(F)F)nnc1C(C)(C)Oc1c(F)cc(Cl)cc1F [Example 587] |  |  | 
